Ki data for one compound are collected here from ChEMBL document CHEMBL5729431, “Benzisoxazole sulfonamide derivatives” (2022).

Test [1] concerns the target Histone acetyltransferase KAT6A (Homo sapiens, UniProt Q92794). Put plainly: (§1) Kat6A Assay 1: A. Compound preparation 1. Prepare 10 mM stock solutions in 100% DMSO from solid material 2. Serial dilute 10 mM, 1 mM or 0.1 mM compound stocks 3-fold in 100% DMSO for 11-point dose responseB. Reagent preparation 1. Prepare 1× assay buffer containing 10 mM Tris HCL pH 8.0, 2.5 mM NaCl, 0.5 mM EDTA, 0.005% BSG and 0.02% Tween-20 2. Dilute Histone peptide (CPC Scientific) and AcCoA (Sigma) together in assay buffer to 2×. 3. Dilute KAT enzyme in assay buffer to 2×.C. Enzyme reaction 1. Final reaction conditions for each KAT assay in a 20 ul assay reaction volume: ii. KAT6A 15 nM, 1 uM AcCoA, 2 uM H3 1-21 peptide, 45-minute reaction 2. Add 0.5 ul of diluted compound to the assay plate (384-well V-bottom polypropylene plates) or 0.5 ul of DMSO for control wells. 3. Add 10 ul of 2× Histone peptide/2×AcCoA mix to the assay plate. 4. Add 10 ul of 2× enzyme to the assay plate. 5. Stop the reaction after the indicated time with the addition of 2 ul of 5% formic acid 6. Each reaction was analyzed using self-assembled monolayer desorption/ionization time-of-flight mass spectrometry (Mrksich, Milan (2008) Mass Spectrometry of Self-Assembled Monolayers: A New Tool for Molecular Surface Science ACS Nano 2008 2 (1), 7-18; SAMDI Tech, Inc. (Chicago, Ill.)). 7. […].

In test [2] the target is Histone acetyltransferase KAT6B (Homo sapiens, UniProt Q8WYB5). Described as §1, with “Kat6B” for “Kat6A”, “KAT6B 25” for “ii. KAT6A 15”, “60-minute” for “45-minute”.
For test [3], the target named is Histone acetyltransferase KAT5 (Homo sapiens, UniProt Q92993). The description is as §1, with “Kat5 Assay:” for “Kat6A Assay 1:”, “KAT5 25” for “ii. KAT6A 15”, “H4” for “H3”, “30-minute” for “45-minute”.
Test [4] deals with Histone acetyltransferase KAT7 (Homo sapiens, UniProt O95251). The description is as §1, with “Kat7 Assay:” for “Kat6A Assay 1:”, “KAT7 12.5” for “ii. KAT6A 15”.
For test [5], the target named is T1, Histone acetyltransferase KAT8 (Homo sapiens, UniProt Q9H7Z6).
T1 sequence (Q9H7Z6 whole entry): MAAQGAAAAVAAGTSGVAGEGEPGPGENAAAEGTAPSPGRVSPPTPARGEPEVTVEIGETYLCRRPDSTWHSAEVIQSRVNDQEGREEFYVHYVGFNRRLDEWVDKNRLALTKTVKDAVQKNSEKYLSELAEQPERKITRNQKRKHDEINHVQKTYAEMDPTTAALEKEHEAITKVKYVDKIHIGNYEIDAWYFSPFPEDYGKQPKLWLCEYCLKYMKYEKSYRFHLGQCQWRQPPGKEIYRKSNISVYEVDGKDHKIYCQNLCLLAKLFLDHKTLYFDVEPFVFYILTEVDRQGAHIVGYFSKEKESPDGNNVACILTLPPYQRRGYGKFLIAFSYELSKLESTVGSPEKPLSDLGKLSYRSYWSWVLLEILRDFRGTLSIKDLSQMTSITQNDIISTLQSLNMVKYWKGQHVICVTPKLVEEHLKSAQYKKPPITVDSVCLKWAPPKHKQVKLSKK
The description is as §1, with “Kat8 Assay: TBDA.” for “Kat6A Assay 1: A.”, “KAT8” for “ii. KAT6A”.

Histone acetyltransferase KAT5, sequence (Q92993 whole entry): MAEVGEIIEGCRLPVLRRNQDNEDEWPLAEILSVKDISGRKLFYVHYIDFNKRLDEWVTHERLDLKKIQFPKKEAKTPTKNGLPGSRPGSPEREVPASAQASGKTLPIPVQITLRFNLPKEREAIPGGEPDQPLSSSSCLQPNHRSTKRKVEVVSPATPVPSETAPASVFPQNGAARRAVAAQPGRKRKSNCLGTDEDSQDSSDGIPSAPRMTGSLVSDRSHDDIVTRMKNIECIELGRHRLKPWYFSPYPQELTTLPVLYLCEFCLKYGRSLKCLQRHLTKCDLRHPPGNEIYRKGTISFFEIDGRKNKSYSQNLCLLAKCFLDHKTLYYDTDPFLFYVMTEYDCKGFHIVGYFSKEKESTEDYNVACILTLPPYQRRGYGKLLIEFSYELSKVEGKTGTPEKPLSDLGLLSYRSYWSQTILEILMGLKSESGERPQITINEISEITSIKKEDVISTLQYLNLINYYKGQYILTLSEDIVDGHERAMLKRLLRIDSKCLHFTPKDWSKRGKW
Histone acetyltransferase KAT7, sequence (O95251 whole entry): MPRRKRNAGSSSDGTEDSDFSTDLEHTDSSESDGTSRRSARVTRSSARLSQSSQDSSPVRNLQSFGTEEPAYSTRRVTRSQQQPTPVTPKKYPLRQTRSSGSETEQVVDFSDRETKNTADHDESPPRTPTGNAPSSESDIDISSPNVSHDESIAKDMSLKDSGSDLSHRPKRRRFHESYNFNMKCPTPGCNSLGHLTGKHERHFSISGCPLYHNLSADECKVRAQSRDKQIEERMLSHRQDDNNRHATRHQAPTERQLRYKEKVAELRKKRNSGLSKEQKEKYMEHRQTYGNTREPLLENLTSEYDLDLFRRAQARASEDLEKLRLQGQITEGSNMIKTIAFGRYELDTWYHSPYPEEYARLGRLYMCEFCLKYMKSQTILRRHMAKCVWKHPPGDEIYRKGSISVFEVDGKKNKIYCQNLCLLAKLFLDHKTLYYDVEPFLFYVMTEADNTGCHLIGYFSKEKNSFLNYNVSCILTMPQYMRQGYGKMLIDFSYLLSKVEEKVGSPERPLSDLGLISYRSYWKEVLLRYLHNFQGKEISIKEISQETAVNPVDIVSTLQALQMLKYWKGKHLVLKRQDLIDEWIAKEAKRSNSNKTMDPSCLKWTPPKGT
Histone acetyltransferase KAT6B, sequence (Q8WYB5 whole entry): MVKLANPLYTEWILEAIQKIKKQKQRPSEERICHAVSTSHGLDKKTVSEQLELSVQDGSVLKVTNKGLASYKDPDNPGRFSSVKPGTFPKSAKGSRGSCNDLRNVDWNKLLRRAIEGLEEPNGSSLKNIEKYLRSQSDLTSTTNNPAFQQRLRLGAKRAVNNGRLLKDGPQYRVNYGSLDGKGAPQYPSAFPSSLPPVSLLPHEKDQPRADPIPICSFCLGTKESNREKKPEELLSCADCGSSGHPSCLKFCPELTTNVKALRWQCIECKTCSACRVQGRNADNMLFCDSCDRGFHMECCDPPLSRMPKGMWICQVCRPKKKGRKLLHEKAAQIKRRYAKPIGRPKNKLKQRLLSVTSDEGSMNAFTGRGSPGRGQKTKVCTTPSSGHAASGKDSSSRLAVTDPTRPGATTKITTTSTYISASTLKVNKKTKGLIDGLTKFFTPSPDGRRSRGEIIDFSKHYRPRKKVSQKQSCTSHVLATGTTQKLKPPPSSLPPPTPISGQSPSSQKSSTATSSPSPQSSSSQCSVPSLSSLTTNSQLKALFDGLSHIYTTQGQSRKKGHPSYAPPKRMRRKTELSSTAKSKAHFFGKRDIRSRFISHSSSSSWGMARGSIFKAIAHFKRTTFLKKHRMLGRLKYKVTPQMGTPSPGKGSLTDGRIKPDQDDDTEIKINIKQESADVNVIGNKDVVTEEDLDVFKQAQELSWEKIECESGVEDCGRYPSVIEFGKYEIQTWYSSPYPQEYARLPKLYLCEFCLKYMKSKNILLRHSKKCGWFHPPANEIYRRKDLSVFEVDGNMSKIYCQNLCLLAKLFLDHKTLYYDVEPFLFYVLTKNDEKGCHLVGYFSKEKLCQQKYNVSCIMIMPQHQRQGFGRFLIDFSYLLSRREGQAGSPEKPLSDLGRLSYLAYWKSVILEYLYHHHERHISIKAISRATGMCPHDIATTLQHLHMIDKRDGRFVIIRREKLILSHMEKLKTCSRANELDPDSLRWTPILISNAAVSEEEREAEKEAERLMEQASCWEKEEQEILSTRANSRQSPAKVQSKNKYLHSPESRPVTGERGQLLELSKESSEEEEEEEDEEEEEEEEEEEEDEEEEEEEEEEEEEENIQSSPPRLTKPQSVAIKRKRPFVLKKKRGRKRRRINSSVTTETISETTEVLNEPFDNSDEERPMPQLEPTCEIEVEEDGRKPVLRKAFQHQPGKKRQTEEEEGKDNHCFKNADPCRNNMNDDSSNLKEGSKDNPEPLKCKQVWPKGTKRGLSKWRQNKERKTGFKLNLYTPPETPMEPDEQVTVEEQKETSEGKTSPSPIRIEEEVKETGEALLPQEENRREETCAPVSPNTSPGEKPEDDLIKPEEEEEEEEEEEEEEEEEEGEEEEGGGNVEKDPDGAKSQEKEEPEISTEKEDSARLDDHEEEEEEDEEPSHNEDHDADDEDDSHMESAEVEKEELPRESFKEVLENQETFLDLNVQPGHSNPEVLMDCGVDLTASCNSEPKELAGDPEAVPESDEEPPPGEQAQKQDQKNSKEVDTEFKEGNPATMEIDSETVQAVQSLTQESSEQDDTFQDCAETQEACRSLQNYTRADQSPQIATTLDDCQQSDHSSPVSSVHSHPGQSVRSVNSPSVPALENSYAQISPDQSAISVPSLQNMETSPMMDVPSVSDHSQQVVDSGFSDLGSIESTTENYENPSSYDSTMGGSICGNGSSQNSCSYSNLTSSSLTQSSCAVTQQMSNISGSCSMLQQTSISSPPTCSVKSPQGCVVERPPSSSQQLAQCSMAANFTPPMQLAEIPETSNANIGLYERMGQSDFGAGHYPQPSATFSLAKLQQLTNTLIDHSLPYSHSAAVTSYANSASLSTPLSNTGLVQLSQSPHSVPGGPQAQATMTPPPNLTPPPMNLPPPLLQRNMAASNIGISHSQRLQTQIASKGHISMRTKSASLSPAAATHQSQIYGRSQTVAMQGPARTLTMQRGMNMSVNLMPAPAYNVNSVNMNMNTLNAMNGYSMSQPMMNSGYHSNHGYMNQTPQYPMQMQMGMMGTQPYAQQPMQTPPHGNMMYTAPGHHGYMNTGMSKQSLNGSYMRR

As for `COc1cc(Cn2cccn2)cc2onc(NS(=O)(=O)c3ccccc3)c12`, the Ki in test [1] was 10.3 nM; in test [2] it was 60.8 nM; in test [3], 5980 nM; in test [4], 900 nM; in test [5], 20600 nM.

One may read the Ki as the dissociation constant of the complex between target and ligand, obtained from inhibition or displacement. Low values mean tighter binding, high ones weaker binding.
